Here are results for 16 compounds from patent US10167299B2, “1-(3-aminopropyl) substituted cyclic amine compounds, preparation method therefor, and pharmaceutical compositions and uses thereof” (SHANGHAI INSTITUTE OF MATERIA MEDICA, CHINESE ACADEMY OF …, priority 2013, dated 2019).

SMILES strings stand for the structures. pIC50: −log10 of the molar value. Where two headings read alike, the source gives them in different places.

The target of this test is CCR5 (Homo sapiens (Human), UniProt P51681). As to the kind of experiment: Calcium flux inhibition experiment. The conditions noted are these: for calcium influx inhibition effect in words, versus positive control compounds: conclusion from Table 1. It is filed as cell-based. The source says:
Experiment apparatus: FlexStation II
Experiment materials: HEK293/CCR5-Gα16 cell line, Fluo-4calcium dye (fluorescent-4 calcium ion dye) and FlexStation instrument.
Experiment theory: Activation of the receptor can cause the activation of Gα16 protein, thereby activating phospholipase C (PLC) to generate IP3 and DAG by establishing CCR5 and Ga16 co-transfected cell line. IP3 can bind to IP3 receptors on the endoplasmic reticulum and mitochondria in a cell, which can cause the release of intracellular calcium. Thus, determination of changes in intracellular calcium can be used as a method to detect CCR5 activation state. Fluo-4/AM is a fluorescent probe indicator for calcium used to measure calcium ion. As a non-polar lipid-soluble compound, after it enters into cells, AM group is dissociated to release Fluo-4 under the effect of cell lipolysis enzyme. Fluo-4 is a polar molecule and not easy to go through the lipid bilayer membrane, therefore it can stay within the cells for a long time. Ultimately, the level of activated Ga protein can be reflected by measuring the excited fluorescence intensity. If the screened compound can activate CCR5, it can greatly increase the calcium flux reaction; on the contrary, if the screened compound can antagonize CCR5, it can greatly reduce calcium flux reaction.
1. HEK293 cells which can stably express CCR5 were inoculated in a 96-well plate and incubated overnight.
2. The medium in each well into which cells were innoculated was removed and 40 μl/well of freshly prepared dye was added. The plate was placed in a 37° C. incubator and incubated for 40 minutes at constant temperature.
3. The medicament to be determined was diluted with calcium buffer to eight concentration gradients, which is 1×10^−4 M, 1×10^−5 M, 1×10^−6 M, 1×10^−7 M, 1×10^−8 M, 1×10^−9 M, 1×10^−10 M, and 1×10^−11 M, respectively, and homogeneously mixed.
4. The dye was removed. Freshly prepared calcium buffer was used to wash for one time, 50 μl of calcium buffer was added.
5. FlexStation II was used for detection. 25 μl of calcium buffer containing the medicament to be determined was added automatically from the 15th second.

Setting [1] is: HEK293/CCR5-Gα16 cell line, calcium flux, read-out: CCR5 IC50.

Sequence of CCR5 (P51681 whole entry): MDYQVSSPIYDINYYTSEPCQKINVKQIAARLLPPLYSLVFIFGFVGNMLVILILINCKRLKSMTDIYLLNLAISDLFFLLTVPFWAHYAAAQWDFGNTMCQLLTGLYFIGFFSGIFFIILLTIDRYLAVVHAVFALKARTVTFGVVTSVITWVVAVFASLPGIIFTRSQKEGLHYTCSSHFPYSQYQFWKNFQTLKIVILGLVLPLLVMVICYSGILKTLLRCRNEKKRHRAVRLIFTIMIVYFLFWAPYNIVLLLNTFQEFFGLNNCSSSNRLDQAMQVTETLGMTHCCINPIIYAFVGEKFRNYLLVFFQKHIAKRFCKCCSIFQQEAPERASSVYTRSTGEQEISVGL

What is called pIC50 is the IC50 on a negative log10 scale, so that one unit is a factor of ten. Turning to `Cc1nnc(C(C)C)n1C1CC2CCC(C1)N2CC[C@H](NC(=O)Cn1ncnn1)c1ccc(F)s1` (stereo partly drawn) [Compound 157, N-[(1S)-3-[exo-3-(3-isopropyl-5-methyl-4H-1,2,4-triazol-4-yl)-8-azabicyclo[3.2.1]octane-8-yl]-1-(5-fluorothiophen-2-yl)propyl]-2-(2H-tetrazol-2-yl)acetamide], the “calcium influx inhibition effect in words, versus positive control compounds” value was “better than the positive control compounds”. The pIC50 under setting [1] was 8.91.
Taken in the same sequence, the figures for `Cc1ccc([C@H](CCN2C3CCC2CC(n2c(C)nnc2C(C)C)C3)NC(=O)C2CCN(S(C)(=O)=O)CC2)s1` (stereo partly shown) [Compound 147] were “better than the positive control compounds” and 8.61.
Regarding `Cc1nnc(C(C)C)n1C1CC2CCC(C1)N2CC[C@H](NC(=O)Cc1nnn[nH]1)c1ccc(F)s1` (stereo partly drawn) [Compound 163, N-[(1S)-3-[exo-3-(3-isopropyl-5-methyl-4H-1,2,4-triazol-4-yl)-8-azabicyclo[3.2.1]octane-8-yl]-1-(5-fluorothiophen-2-yl)propyl]-2-(1H-tetrazol-5-yl)acetamide], under setting [1], the pIC50 was 7.88.
Still for that read-out and setting: to `Cc1nnc(C(C)C)n1C1CC2CCC(C1)N2CC[C@H](NC(=O)C1CCCC1)c1ccc(Cl)s1` (stereo partly drawn) [Compound 114, N-[(1S)-3-[exo-3-(3-isopropyl-5-methyl-4H-1,2,4-triazol-4-yl)-8-azabicyclo[3.2.1]octane-8-yl]-1-(5-chlorothiophen-2-yl)propyl]cyclopentane-1-carboxamide] belongs 8.03.
As to `CNC(=O)c1ccc([C@H](CCN2C3CCC2CC(n2c(C)nnc2C(C)C)C3)NC(=O)C2CCCC2)s1` (stereo partly drawn) [Compound 142, 5-[(1S)-1-(cyclopentaneformamido)-3-[exo-3-(3-isopropyl-5-methyl-4H-1,2,4-triazol-4-yl)-8-azabicyclo[3.2.1]octane-8-yl]-propyl]-N-methylthiophene-2carboxamide], the “calcium influx inhibition effect in words, versus positive control compounds” value was “comparable to the positive control compounds”. In addition, under setting [1], the pIC50 is 8.02.
As to `COc1ccc([C@H](CCN2C3CCC2CC(n2c(C)nnc2C(C)C)C3)NC(=O)CC#N)s1` (stereo partly drawn) [Compound 166, N-[(1S)-3-[exo-3-(3-isopropyl-5-methyl-4H-1,2,4-triazol-4-yl)-8-azabicyclo[3.2.1]octane-8-yl]-1-(5-methoxythiophen-2-yl)propyl]-2-cyanoacetamide], the pIC50 is 8.18 and the “calcium influx inhibition effect in words, versus positive control compounds” value is given as “better than the positive control compounds”.
As to `Cc1nnc(C(C)C)n1C1CC2CCC(C1)N2CC[C@H](NC(=O)C1CCCC1)c1nccs1` (stereo partly drawn) [Compound 117, N-[(1S)-3-[exo-3-(3-isopropyl-5-methyl-4H-1,2,4-triazol-4-yl)-8-azabicyclo[3.2.1]octane-8-yl]-1-(thiazol-2-yl)propyl]cyclopentane-1-carboxamide], under setting [1], the pIC50 was 7.79.
As to `Cc1nnc(C(C)C)n1C1CC2CCC(C1)N2CC[C@H](NC(=O)C1CCN(S(C)(=O)=O)CC1)c1ccc(Cl)s1` (stereo partly drawn) [Compound 150, N-[(1S)-3-[exo-3-(3-isopropyl-5-methyl-4H-1,2,4-triazol-4-yl)-8-azabicyclo[3.2.1]octane-8-yl]-1-(5-chlorothiophen-2-yl)propyl]-1-methylsulfonylpiperidine-4-carboxamide], the “calcium influx inhibition effect in words, versus positive control compounds” value is “better than the positive control compounds”. Further, the pIC50 under setting [1] is 8.65.
Take `Cc1nnc(C(C)C)n1C1CC2CCC(C1)N2CC[C@H](NC(=O)C1CCN(S(C)(=O)=O)CC1)c1ccc(C#N)s1` (stereo partly drawn) [Compound 149, N-[(1S)-3-[exo-3-(3-isopropyl-5-methyl-4H-1,2,4-triazol-4-yl)-8-azabicyclo[3.2.1]octane-8-yl]-1-(5-cyanothiophen-2-yl)propyl]-1-methylsulfonylpiperidine-4-carboxamide]: the pIC50 was 8.10 and the “calcium influx inhibition effect in words, versus positive control compounds” value is reported as “comparable to the positive control compounds”.
With `COC(=O)c1ccc([C@H](CCN2C3CCC2CC(n2c(C)nnc2C(C)C)C3)NC(=O)C2CCC(F)(F)CC2)s1` (stereo partly drawn) [Compound 88, 4,4-difluoro-N-[(1S)-3-[exo-3-(3-isopropyl-5-methyl-4H-1,2,4-triazol-4-yl)-8-azabicyclo[3.2.1]octane-8-yl]-1-(5-methoxycarbonylthiophen-2-yl)propyl]cyclohexane-1-carboxamide], the pIC50 under setting [1] is 8.03.
Turning to `Cc1nnc(C(C)C)n1C1CC2CCC(C1)N2CC[C@H](NC(=O)Cn1ncnn1)c1ccc(Cl)s1` (stereo partly drawn) [Compound 156, N-[(1S)-3-[exo-3-(3-isopropyl-5-methyl-4H-1,2,4-triazol-4-yl)-8-azabicyclo[3.2.1]octane-8-yl]-1-(5-chlorothiophen-2-yl)propyl]-2-(2H-tetrazol-2-yl)acetamide], the “calcium influx inhibition effect in words, versus positive control compounds” value was “comparable to the positive control compounds”. Further, the pIC50 under setting [1] is 8.01.
Consider `Cc1nnc(C(C)C)n1C1CC2CCC(C1)N2CC[C@H](NC(=O)Cc1nnn[nH]1)c1cccs1` (stereo partly drawn) [Compound 158, N-[(1S)-3-[exo-3-(3-isopropyl-5-methyl-4H-1,2,4-triazol-4-yl)-8-azabicyclo[3.2.1]octane-8-yl]-1-(thiophen-2-yl)propyl]-2-(1H-tetrazol-5-yl)acetamide], for which the pIC50 under setting [1] is 7.83.
Take `Cc1nnc(C(C)C)n1C1CC2CCC(C1)N2CC[C@H](NC(=O)C1CCN(S(C)(=O)=O)CC1)c1ccc(F)s1` (stereo partly drawn) [Compound 151, N-[(1S)-3-[exo-3-(3-isopropyl-5-methyl-4H-1,2,4-triazol-4-yl)-8-azabicyclo[3.2.1]octane-8-yl]-1-(5-fluorothiophen-2-yl)propyl]-1-methylsulfonylpiperidine-4-carboxamide]: the “calcium influx inhibition effect in words, versus positive control compounds” value is on record as “better than the positive control compounds”. For the same compound, the pIC50 under setting [1] is 8.46.
With `Cc1nc2c(n1C1CC3CCC(C1)N3CC[C@H](NC(=O)C1CCC(F)(F)CC1)c1ccsc1)CCN(C(=O)C(C)C)C2` (stereo partly drawn) [Compound 43, 4,4-difluoro-N-{(1S)-1-(thiophen-3-yl)-3-[(3-endo)-3-(5-isobutyryl-2-methyl-4,5,6,7-tetrahydro-1H-imidazo[4,5-c]pyridin-1-yl)-8-azabicyclo[3.2.1]octane-8-yl]propyl}cyclohexane-1-carboxamide], the pIC50 under setting [1] is 8.08.
The same measure, in the same setting: to `CC(=O)N[C@@H](CCN1C2CCC1CC(n1c(C)nc3c1CCN(C(C)=O)C3)C2)c1ccc(C#N)s1` (stereo partly drawn) [Compound 144, N-{(1S)-3-[(3-endo)-3-(5-acetyl-2-methyl-4,5,6,7-tetrahydro-1H-imidazo[4,5-c]pyridin-1-yl)-8-azabicyclo[3.2.1]octane-8-yl]-1-(5-cyanothiophen-2-yl)-propyl}acetamide] belongs 8.07.
Consider `Cc1ccc([C@H](CCN2C3CCC2CC(n2c(C)nnc2C(C)C)C3)NC(=O)Cc2nnn[nH]2)s1` (stereo partly drawn) [Compound 159, N-[(1S)-3-[exo-3-(3-isopropyl-5-methyl-4H-1,2,4-triazol-4-yl)-8-azabicyclo[3.2.1]octane-8-yl]-1-(5-methylthiophen-2-yl)propyl]-2-(1H-tetrazol-5-yl)acetamide], for which the “calcium influx inhibition effect in words, versus positive control compounds” value is “comparable to the positive control compounds”. In addition, the negative-log IC50 (pIC50) under setting [1] was 8.06.
